Assay results as given in patent publication US5770378A, “Tricyclic retinoids, methods for their production and use” (Ligand Pharmaceuticals, Inc., priority 1995, dated 1998).

Columns and labels:
[1] = tested on: RARs; experiment: Co-transfection assay, RARs overall; assay type: cell-based, human
Procedure: (§1) Utilizing the "cis-trans" or "co-transfection" assay described by Evans et al., Science, 240:889-95 (May 13, 1988), the disclosure of which is herein incorporated by reference, the retinoid compounds of the present invention were tested and found to have strong, specific activity as either selective RAR agonists, selective RXR agonists, or as pan-agonist activators of both RAR and RXR receptors. This assay is described in further detail in U.S. Pat. Nos. 4,981,784 and 5,071,773, the disclosures of which are incorporated herein by reference.
(§2) In the co-transfection assay, a cloned cDNA for an IR (e.g., human RARα, RARβ, RXRγ) under the control of a constitutive promoter (e.g., the SV 40 promoter) is introduced by transfection (a procedure to induce cells to take up foreign genes) into a background cell substantially devoid of endogenous IRs. This introduced gene directs the recipient cells to make the IR protein of interest. A second gene is also introduced (co-transfected) into the same cells in conjunction with the IR gene. This second gene, comprising the cDNA for a reporter protein, such as firefly luciferase (LUC), controlled by an appropriate hormone responsive promoter containing a hormone response element (HRE). This reporter plasmid functions as a reporter for the transcription-modulating activity of the target IR. Thus, the reporter acts as a surrogate for the products (mRNA then protein) normally expressed by a gene under control of the target receptor and its native hormone.
The co-transfection assay can detect small molecule agonists or antagonists of target IRs. Exposing the transfected cells to an agonist ligand compound increases reporter activity in the transfected cells. This activity can be conveniently measured, e.g., by increasing luciferase production, which reflects compound-dependent, IR-mediated increases in reporter transcription. […] . Increasing concentrations of a suspected antagonist will decrease the reporter signal (e.g., luciferase production). The co-transfection assay is therefore useful to detect both agonists and antagonists of specific IRs. Furthermore, it determines not only whether a compound interacts with a particular IR, but whether this interaction mimics (agonizes) or blocks (antagonizes) the effects of the native regulatory molecules on target gene expression, as well as the specificity and strength of this interaction. […]

[2] = tested on: RAR and RXR receptors; experiment: Co-transfection assay, RAR and RXR receptors overall; assay type: cell-based; details: for potency profile versus 9-cis retinoic acid: pan-agonist compounds; for receptor subfamily selectivity: RAR versus RXR
Procedure: as §1, §2
The co-transfection assay can detect small molecule agonists or antagonists of target IRs. Exposing the transfected cells to an agonist ligand compound increases reporter activity in the transfected cells. This activity can be conveniently measured, e.g., by increasing luciferase production, which reflects compound-dependent, IR-mediated increases in reporter transcription. […] . Increasing concentrations of a suspected antagonist will decrease the reporter signal (e.g., luciferase production). The co-transfection assay is therefore useful to detect both agonists and antagonists of specific IRs. Furthermore, it determines not only whether a compound interacts with a particular IR, but whether this interaction mimics (agonizes) or blocks (antagonizes) the effects of the native regulatory molecules on target gene expression, as well as the specificity and strength of this interaction.
To determine RAR and/or RXR agonist activity of the compounds of the present invention, the CV-1 cells were transiently transfected by calcium phosphate coprecipitation according to the procedure of Berger et al., 41 J.Steroid Biochem. Mol. Biol., 733 (1992) with the following receptor expressing plasmids: pRShRARα: Giguere et al., 330 Nature, 624 (1987); pRShRARβ and pRShRARγ, Ishikawa et al., 4 Mol. Endocrin., 837 (1990); pRShRXRα, Mangelsdorf et al., 345 Nature, 224 (1990); and pRSmRXRβ and pRSmRXRγ, Mangelsdorf et al., 6 Genes & Devel., 329 (1992), the disclosures of which are herein incorporated by reference. Each of these receptor expressing plasmids was co-transfected at a concentration of 5 ng/well, along with a basal reporter plasmid at 100 ng/well, the internal control plasmid pRS-β-Gal at 50 ng/well and filler DNA, pGEM at 45 ng/well.

potency profile versus 9-cis retinoic acid [2] | receptor subfamily selectivity [2] | Structure (SMILES) | RAR activity [1]
 | RAR selective | CC(/C=C/C=C1\CCCc2cc3c(cc21)C(C)(C)CCC3(C)C)=C\C(=O)O [Compound 109b, (2E,4E)-3-Methyl-6-[(E)-3,4,5,6,7,8-hexahydro-5,5,8,8-tetramethyl-2H-anthracen-1-ylidene]hexa-2,4-dienoic acid] | extremely potent RAR active
superior potency profiles |  | CC(/C=C/CC1CCCc2cc3c(cc21)C(C)(C)CCC3(C)C)=C\C(=O)O (racemic) [Compound 124b, (2E,4E)-3-Methyl-6-(1,2,3,4,5,6,7,8-octahydro-5,5,8,8-tetramethylanthracen-1-yl)hexa-2,4-dienoic acid] | 

Continued, compound first:

Structure (SMILES) | potency profile versus 9-cis retinoic acid [2] | receptor subfamily selectivity [2] | RAR activity [1]
CC(/C=C/C=C1/CCCc2cc3c(cc21)C(C)(C)CCC3(C)C)=C\C(=O)O [Compound 101b, (2E,4E)-3-Methyl-6-[(Z)-3,4,5,6,7,8-hexahydro-5,5,8,8-tetramethyl-2H-anthracen-1-ylidene]hexa-2,4-dienoic acid] | superior potency profiles |  | extremely potent RAR active
CC(/C=C/C=C1\CCOc2cc3c(cc21)C(C)(C)CCC3(C)C)=C\C(=O)O [Compound 119b, (2E,4E)-3-Methyl-6-[(E)-2,3,6,7,8,9-hexahydro-6,6,9,9-tetramethyl-benzo[g]chromen-4-ylidene]hexa-2,4-dienoic acid] |  | RAR selective | extremely potent RAR active
CC(/C=C/C=C1/CCOc2cc3c(cc21)C(C)(C)CCC3(C)C)=C\C(=O)O [Compound 144b] | superior potency profiles |  | extremely potent RAR active
